Holding throughout (assay type): functional
The test system of test [1] is Citrobacter freundii. The test can be described thus: Antimicrobial activity against Citrobacter freundii obtained from patient with complicated intra-abdominal infection assessed as percent susceptible isolates by agar dilution method in presence of beta-lactamase inhibitor Tazobactam. On the technique in general: In agar dilution, organisms are placed on agar that contains the substance at set levels.

The test system of test [2] is Klebsiella aerogenes. The experiment in a line: Antimicrobial activity against Enterobacter aerogenes obtained from patient with complicated intra-abdominal infection assessed as percent susceptible isolates by agar dilution method in presence of beta-lactamase inhibitor Tazobactam.
Test [3] relates to Enterobacter cloacae. The experiment in a line: Antimicrobial activity against Enterobacter cloacae obtained from patient with complicated intra-abdominal infection assessed as percent susceptible isolates by agar dilution method in presence of beta-lactamase inhibitor Tazobactam.
In test [4] the test system is Escherichia coli. The test can be described thus: Antimicrobial activity against Escherichia coli obtained from patient with complicated intra-abdominal infection assessed as percent susceptible isolates by agar dilution method in presence of beta-lactamase inhibitor Tazobactam.
The subject of test [5] is Escherichia coli. The test can be described thus: Antimicrobial activity against extended-spectrum beta-lactamase-positive Escherichia coli obtained from patient with complicated intra-abdominal infection assessed as percent susceptible isolates by agar dilution method in presence of beta-lactamase inhibitor Tazobactam.
Test [6] deals with Escherichia coli. The test can be described thus: Antimicrobial activity against extended-spectrum beta-lactamase-negative Escherichia coli obtained from patient with complicated intra-abdominal infection assessed as percent susceptible isolates by agar dilution method in presence of beta-lactamase inhibitor Tazobactam.
Test [7] has as its system Klebsiella pneumoniae. The experiment in a line: Antimicrobial activity against Klebsiella pneumoniae assessed as percent susceptible isolates by agar dilution method in presence of beta-lactamase inhibitor Tazobactam.
The subject of test [8] is Klebsiella pneumoniae. The test can be described thus: Antimicrobial activity against extended-spectrum beta-lactamase-positive Klebsiella pneumoniae assessed as percent susceptible isolates by agar dilution method in presence of beta-lactamase inhibitor Tazobactam.
The test system of test [9] is Klebsiella pneumoniae. The experiment in a line: Antimicrobial activity against extended-spectrum beta-lactamase-negative Klebsiella pneumoniae assessed as percent susceptible isolates by agar dilution method in presence of beta-lactamase inhibitor Tazobactam.
The subject of test [10] is Klebsiella oxytoca. The experiment in a line: Antimicrobial activity against extended-spectrum beta-lactamase-positive Klebsiella oxytoca assessed as percent susceptible isolates be agar dilution method in presence of beta-lactamase inhibitor Tazobactam.
Test [11] deals with Proteus mirabilis. The test can be described thus: Antimicrobial activity against extended-spectrum beta-lactamase-positive Proteus mirabilis assessed as percent susceptible isolates by agar dilution method in presence of beta-lactamase inhibitor Tazobactam.
The test system of the next test is Pseudomonas aeruginosa. The test can be described thus: Antimicrobial activity against Pseudomonas aeruginosa assessed as percent susceptible isolates by agar dilution method in presence of beta-lactamase inhibitor Tazobactam.
The subject of test [12] is Serratia marcescens. The experiment in a line: Antimicrobial activity against Serratia marcescens assessed as percent susceptible isolates by agar dilution method in presence of beta-lactamase inhibitor Tazobactam.
The subject of test [13] is Pasteurella sp. The test can be described thus: Antimicrobial activity against Pasteurella sp. assessed as percent susceptible isolates by agar dilution method in presence of beta-lactamase inhibitor Tazobactam.
Test [14] deals with Pseudomonas fluorescens. The experiment in a line: Antimicrobial activity against Pseudomonas fluorescens assessed as percent susceptible isolates by agar dilution method in presence of beta-lactamase inhibitor Tazobactam.
Test [15] has as its system Stenotrophomonas maltophilia. The experiment in a line: Antimicrobial activity against Stenotrophomonas maltophilia assessed as percent susceptible isolates by agar dilution method in presence of beta-lactamase inhibitor Tazobactam.
For test [16], the system named is Acinetobacter sp. The test can be described thus: Antimicrobial activity against Acinetobacter sp. assessed as percent susceptible isolates by agar dilution method in presence of beta-lactamase inhibitor Tazobactam.
The test system of test [17] is Citrobacter freundii. The test can be described thus: Antimicrobial activity against Citrobacter freundii obtained from patient with complicated intra-abdominal infection assessed as percent susceptible isolates by agar dilution method in presence of beta-lactamase inhibitor Sulbactam.
In test [18] the test system is Klebsiella aerogenes. The test can be described thus: Antimicrobial activity against Enterobacter aerogenes obtained from patient with complicated intra-abdominal infection assessed as percent susceptible isolates by agar dilution method in presence of beta-lactamase inhibitor Sulbactam.
The subject of test [19] is Enterobacter cloacae. The test can be described thus: Antimicrobial activity against Enterobacter cloacae obtained from patient with complicated intra-abdominal infection assessed as percent susceptible isolates by agar dilution method in presence of beta-lactamase inhibitor Sulbactam.
For test [20], the system named is Escherichia coli. The experiment in a line: Antimicrobial activity against Escherichia coli obtained from patient with complicated intra-abdominal infection assessed as percent susceptible isolates by agar dilution method in presence of beta-lactamase inhibitor Sulbactam.
The subject of test [21] is Escherichia coli. The experiment in a line: Antimicrobial activity against extended-spectrum beta-lactamase-positive Escherichia coli obtained from patient with complicated intra-abdominal infection assessed as percent susceptible isolates by agar dilution method in presence of beta-lactamase inhibitor Sulbactam.
The subject of test [22] is Escherichia coli. The test can be described thus: Antimicrobial activity against extended-Spectrum beta-lactamase-negative Escherichia coli obtained from patient with complicated intra-abdominal infection assessed as percent susceptible isolates by agar dilution method in presence of beta-lactamase inhibitor Sulbactam.
Test [23] has as its system Klebsiella pneumoniae. The test can be described thus: Antimicrobial activity against Klebsiella pneumoniae assessed as percent susceptible isolates by agar dilution method in presence of beta-lactamase inhibitor Sulbactam.
Test [24] concerns Klebsiella pneumoniae. The test can be described thus: Antimicrobial activity against extended-spectrum beta-lactamase-positive Klebsiella pneumoniae assessed as percent susceptible isolates by agar dilution method in presence of beta-lactamase inhibitor Sulbactam.
The test system of test [25] is Klebsiella pneumoniae. The test can be described thus: Antimicrobial activity against extended-spectrum beta-lactamase-negative Klebsiella pneumoniae assessed as percent susceptible isolates by agar dilution method in presence of beta-lactamase inhibitor Sulbactam.
The test system of test [26] is Klebsiella oxytoca. The test can be described thus: Antimicrobial activity against extended-spectrum beta-lactamase-positive Klebsiella oxytoca assessed as percent susceptible isolates by agar dilution method in presence of beta-lactamase inhibitor Sulbactam.
Test [27] has as its system Proteus mirabilis. The test can be described thus: Antimicrobial activity against extended-spectrum beta-lactamase-positive Proteus mirabilis assessed as percent susceptible isolates by agar dilution method in presence of beta-lactamase inhibitor Sulbactam.
In test [28] the test system is Serratia marcescens. The test can be described thus: Antimicrobial activity against Serratia marcescens assessed as percent susceptible isolates by agar dilution method in presence of beta-lactamase inhibitor Sulbactam.
The test system of test [29] is Pasteurella sp. The experiment in a line: Antimicrobial activity against Pasteurella sp. assessed as percent susceptible isolates by agar dilution method in presence of beta-lactamase inhibitor Sulbactam.
Test [30] relates to Pseudomonas fluorescens. The experiment in a line: Antimicrobial activity against Pseudomonas fluorescens assessed as percent susceptible isolates by agar dilution method in presence of beta-lactamase inhibitor Sulbactam.
Test [31] concerns Stenotrophomonas maltophilia. The test can be described thus: Antimicrobial activity against Stenotrophomonas maltophilia assessed as percent susceptible isolates by agar dilution method in presence of beta-lactamase inhibitor Sulbactam.
Test [32] relates to Acinetobacter sp. The experiment in a line: Antimicrobial activity against Acinetobacter sp. assessed as percent susceptible isolates by agar dilution method in presence of beta-lactamase inhibitor Sulbactam.

Take `CCN1CCN(C(=O)N[C@@H](C(=O)N[C@@H]2C(=O)N3[C@@H]2SC(C)(C)[C@@H]3C(=O)O)c2ccccc2)C(=O)C1=O` [PIPERACILLIN]: the Activity with Citrobacter freundii [1] was found to be 72%; with Klebsiella aerogenes [2], 88%; in the test on Enterobacter cloacae [3], 69%; in the test on Escherichia coli [4] it was 96%; in the test on Escherichia coli [5], 62%; with Escherichia coli [6], 98%. Moreover, the Activity came to 85% with Klebsiella pneumoniae [7]; 28% in the test with Klebsiella pneumoniae [8]; 97% in the test on Klebsiella pneumoniae [9]; 89% in the test with Klebsiella oxytoca [10]; 100% with Proteus mirabilis [11]; 83% with Pseudomonas aeruginosa. The Activity is given as 100% in the test with Serratia marcescens [12]; 23% in the test on Pasteurella sp. [13]; 23% with Pseudomonas fluorescens [14]; 23% in test [15]; 23% in the test on Acinetobacter sp. [16].
On to `CC1(C)S[C@@H]2[C@H](NC(=O)[C@H](N)c3ccccc3)C(=O)N2[C@H]1C(=O)O` [AMPICILLIN], for which the Activity came out at 61% in the test with Citrobacter freundii [17]; 21% with Klebsiella aerogenes [18]; 17% in the test with Enterobacter cloacae [19]; 62% in the test with Escherichia coli [20]; 24% in the test with Escherichia coli [21]; 64% in the test with Escherichia coli [22]. Moreover, the Activity in the test on Klebsiella pneumoniae [23] came out at 69%; with Klebsiella pneumoniae [24], 3%; in the test with Klebsiella pneumoniae [25] it was 83%; in the test on Klebsiella oxytoca [26], 57%; in the test with Proteus mirabilis [27] it was 97%; in the test on Serratia marcescens [28], 13%. Moreover, the Activity (with Pasteurella sp. [29]; in the test on Pseudomonas fluorescens [30]; in test [31]; with Acinetobacter sp. [32]) was 46% throughout.

(Values after ChEMBL document CHEMBL1629692, “Susceptibility of gram-negative pathogens isolated from patients with complicated intra-abdominal infections in the United States, 2007-2008: results of the Study for Monitoring Antimicrobial Resistance Trends (SMART)” (2010).)
